Reference: patent US12594263B2, “CBL inhibitors and compositions for expansion of immune cells” (Nurix Therapeutics, Inc., priority 2019, dated 2026)
“Also recorded” adds a separate entry of the source.

Assays:
[1] = tested on: human T cells from donor PBMC; assay: Flow cytometry immunophenotyping of T cells expanded from donor PBMC; type: cell-based
Excerpt: (§1) At day eleven, cells were pooled and counted, and immunophenotyped at day 11 by flow cytometry by measuring expression of lineage (CD4, CD8) and differentiation (including CD45RA, CD45RO, CD95, CCR7, CD62L, TCF1, PD-1, TIM3, LAG3) markers.
T lymphocytes were defined based on lineage and differentiation marker expression according to the developmental model (Restifo, Blood, 124:476-477, 2014), as shown in Table 4.

[2] = tested on: breast TIL; assay: CDR3 diversity of expanded breast TIL (iRepertoire sequencing); type: cell-based, human; settings: 14 days in GREX 10 (FIGS. 32A-C)
Description: TIL were cultured for 14 days in GREX™10. […] The raw data were analyzed by iRepertoire using IRmap programs with a modified Smith-Waterman algorithm. Using CDR3algebra software, the calculation of shared CDR3s across samples with the indicated treatment was assessed. […] All CDR3 frequencies were scaled to 10 million reads to account for differences in read depth among samples. Data was normalized so that each uCDR3-VDJ combination was treated as a quantity of 1 regardless of read count, and then analyzed for V usage and J usage.

[3] = tested on: human T cells from peripheral blood mononuclear cells; assay: Expansion of CMV pp65 reactive T cells from peripheral blood mononuclear cells; type: cell-based; settings: for Percentage of total cell number relative to IL-2 alone on day 11: alone or with IL-2 2 ng/mL
Excerpt: as §1

[4] = tested on: OT-1 CD8+ T cells; assay: Ex vivo expansion and immunophenotyping of OT-1 CD8+ T cells; type: cell-based, mouse; settings: 1 μM, three days, plate-bound anti-CD3
Excerpt: Antigen specific T cells from transgenic mice can be leveraged as a model for CAR T or TIL expansion ex vivo with a Cbl inhibitor. The OT-1 transgenic animals, that are commercially available, have CD8 T cells that recognize OVA peptide aa 257-264 when presented by the MHC I molecule. CD8+ T cells from OT-1 mice were isolated from a single cell suspension of splenocytes by negative selection (StemCell Technologies cat #19853 EasySep™ Mouse CD8+ T Cell Isolation Kit). Cell were then resuspended in complete media (RPMI1640, 10% heat inactivated FBS, 1× Penicillin/Streptomycin, 1× Glutamine and β-mercaptoethanol) at concentration of 0.5×10^6 per mL. Six well tissue culture plates (Falcon) were coated with 2 ug/mL of anti-mouse CD3 (Bio Xcell Cat #BE0001-1-R100 mg InVivoMAb anti-mouse CD3ε Clone: 145-2C11) for >3 hrs at 37° C. and washed with PBS (MediaTech) prior to cell addition. […] Following three days of OT-1 T cell activation and expansion the cells were collected, counted and immunophenotyped by flow cytometry by measuring expression of differentiation and additional T cell makers including: CD3, CD4, CD8, CD45, CD25, Granzyme B, CD107a, CD127, PD-1, TIM3, LAG3, KLRG-1, ICOS, TCF1, Ki67, T-bet and FOXP3.

[5] = tested on: E.G7-OVA tumors; assay: Adoptive transfer of ex vivo expanded OT-1 cells into E.G7-OVA tumor-bearing mice: tumor volume and survival; type: in vivo, mouse
Description: Dead cells were removed (Miltenyi Biotec Cat #130-090-101) prior to transfer in vivo to monitor their trafficking and function in an EG.7 lymphoma model, which expresses the OVA antigen. Approximately five million cells per mouse were transferred to mice having an average tumor burden of about 70 mm^3. Following in vivo transfer of the OT-1 cells, antitumor response was monitored over time and the quality and quantity of immune response were assessed at various time points.
(§2) The expanded OT-1 cells were characterized by FACS analysis and transferred into E.G7-OVA mice, which bear ovalbumin (OVA) expressing tumors. Following in vivo transfer of expanded OT-1 cells, antitumor response was monitored over time and the quality and quantity of immune response was assessed at various time points. Analysis included FACS analysis on blood, tumor, and spleen samples. Analysis also included re-stimulation of splenocytes with OVA Class I peptide to evaluate the multifunctionality of the antigen-specific effector T cells.
On Day 0, E.G7-OVA cells were implanted into each mouse. On Day 5, approximately 5×10^6 in vitro expanded OT-1 cells were injected into the tail of each mouse. On Day 9, blood was analyzed by FACS. On Day 14, blood, tumor and spleen samples were analyzed by FACS. On Day 27, blood was analyzed by FACS. Tumor volume was measured approximately every five days through about 50 days post implant.

[6] = tested on: OT-1 cells; assay: Re-stimulation of harvested splenocytes with OVA Class I peptide; type: cell-based, mouse
Description: as §2
Expanded OT-1 cells were assessed from splenocytes 11 days after transfer. Harvested splenocytes were re-stimulated with OVA Class I peptide for 72 hours.
Expanded OT-1 cells were assessed from splenocytes 11 days after transfer. Harvested splenocytes were re-stimulated with OVA Class I peptide for 4 hours.
Expanded OT-1 cells were assessed from splenocytes 11 days after transfer. Harvested splenocytes were re-stimulated with OVA Class I peptide for 24 hours.

[7] = tested on: human tumor-infiltrating lymphocytes (TIL); assay: Rapid Expansion Protocol (REP) of TIL; type: cell-based; settings: alone or with IL-2 6000 IU/mL
Description: PBMC, OKT3 antibody (30 ng/mL), complete medium (“CM”), AIM V media (GIBCO/BRL), and TIL effector cells were combined, mixed, and aliquoted to a 75 cm^2 tissue culture flask. Flasks were incubated upright at 37° C. in 5% CO2. […] About 14 days after initiation of the REP, cells were harvested and cryopreserved for future experimental analysis.

[8] = tested on: E.G7-OVA tumor cells; assay: Tumor re-challenge of long term survivors 149 days after OT-1 transfer; type: in vivo, mouse
Excerpt: To determine whether OT-1 cells are capable of long-term tumor protection, the long term survivors of the above experiment (FIG. 12) were re-challenged with a lethal dose of E.G7-OVA tumor cells 149 days after the initial adoptive transfer of the in vitro expanded OT-1 cells. Re-challenge induced OT-1 cell expansion at the site engrafted with E.G7-OVA tumor cells expressing ovalbumin antigen, thereby effectively controlling tumor growth (FIG. 21).

[9] = second study, anti-CD3 stimulated OT-1 cells

Compound: C[C@@H]1CN(Cc2cc3c(c(C(F)(F)F)c2)CN(c2cccc(C4(Cc5nncn5C)COC4)c2)C3=O)CCC1(F)F [Compound 103]
- Percentage of CD8+ cells in culture ([1]; 1 μM Cbl inhibitor alone, versus IL-2 alone): higher percentages of CD8+ cells than those cultured in IL-2 alone
- Phenotype of human T cells expanded ex vivo ([1]; donor PBMC, Table 7): TSCM (CD45RA+, CD95+, CCR7+, CD62L+), TCM (CD45RO+, CD95+, CCR7+, CD62L+) or TEM (CD45RO+, CD95+, CCR7−, CD62L−) phenotype
- CD4 TsCM, percentage of total cell number on day 11 ([1]; donor PBMC, 0.1 μM Cbl-i, alone or with IL-2): 12%
- Selective expansion of CD8+ T lymphocytes ([1]; donor PBMCs, FIGS. 2A and 2B): selectively expand CD8+ T lymphocytes from donor PBMCs
- Unique CDR3s [2]: increased
- Percentage of total cell number relative to IL-2 alone on day 11 ([3]; Donor 1, 0.1 μM Cbl-i): 12%
- Percentage of total cell number relative to IL-2 alone on day 11 ([3]; Donor 1, 1.0 μM Cbl-i): 12%
- Percentage of total cell number relative to IL-2 alone on day 11 ([3]; Donor 1, 10 μM Cbl-i): 44%
- Percentage of total cell number relative to IL-2 alone on day 11 ([3]; Donor 2, 0.1 μM Cbl-i): 70%
- Percentage of total cell number relative to IL-2 alone on day 11 ([3]; Donor 2, 1.0 μM Cbl-i): 95%
- Percentage of total cell number relative to IL-2 alone on day 11 ([3]; Donor 2, 10 μM Cbl-i): 45%
- Percentage of total cell number relative to IL-2 alone on day 11 ([3]; Donor 3, 1.0 μM Cbl-i): 75%
- Percentage of total cell number relative to IL-2 alone on day 11 ([3]; Donor 3, 10 μM Cbl-i): 38%
- Expansion of T cells in the absence of IL-2 ([3]; PBMC, no IL-2): considerable expansion of T cells
- Effector function of expanded OT-1 cells (granzyme and T-bet) [4]: trend of increased effector function
- Anti-tumor phenotype of transferred T cells ([5]; 3-day ex vivo exposure, alone or in combination with IL-2): conferred a lasting anti-tumor phenotype for over a month
- Potency of expanded CD8+ OT-1 cells (tumor volume, FIGS. 11A and 11B) ([5]; expansion at 1 μM, IL-2 300 IU, E.G7-OVA mice): at least as potent as CD8+OT-1 cells expanded with IL-2
- Rejection of established tumors by expanded OT-1 cells (FIG. 9) ([5]; mice subcutaneously implanted with E.G7-OVA cells): potent effectors capable of rejecting established tumors
- Long-term survival (FIG. 12B) [5, 9]: improved long-term survival
- Potency of expanded OT-1 cells, inhibition of tumor growth (FIG. 12A) [5, 9]: increased potency compared to IL-2 expanded cells; also recorded: increased potency compared to TL-2 expanded cells
- Exhaustion markers (PD1 and TIM3) in multifunctional cells ([6]; OVA Class I peptide 4 hours, versus IL-2 alone (FIG. 16C)): lower level of expression of exhaustion markers (PD1 and TIM3)
- Multifunctionality (IFN-gamma and TNF-alpha double positive cells) ([6]; OVA Class I peptide 4 hours, versus IL-2 alone (FIGS. 16A, 16B)): comparable multifunctionality
- IL-2 production upon restimulation ([6]; OVA Class I peptide 24 hours (FIG. 17B)): increased IL-2 production upon restimulation
- Ability to proliferate in response to peptide restimulation ([6]; splenocytes 11 days after transfer, OVA Class I peptide 72 hours (FIG. 15)): superior intrinsic ability to proliferate in response to peptide restimulation
- Percentage of total cell number relative to IL-2 alone on day 42 (Pre-REP and REP) ([7]; TIL1 (ovary), 0.1 μM Cbl-i): 40%
- Percentage of total cell number relative to IL-2 alone on day 42 (Pre-REP and REP) ([7]; TIL1 (ovary), 1.0 μM Cbl-i): 42%
- Percentage of total cell number relative to IL-2 alone on day 42 (Pre-REP and REP) ([7]; TIL1 (ovary), 10 μM Cbl-i): 32%
- Percentage of total cell number relative to IL-2 alone on day 42 (Pre-REP and REP) ([7]; TIL3 (ovary), 1.0 μM Cbl-i): 150%
- Percentage of total cell number relative to IL-2 alone on day 42 (Pre-REP and REP) ([7]; TIL4 (colon), 0.1 μM Cbl-i): 80%
- Percentage of total cell number relative to IL-2 alone on day 42 (Pre-REP and REP) ([7]; TIL4 (colon), 1.0 μM Cbl-i): 80%
- Percentage of total cell number relative to IL-2 alone on day 42 (Pre-REP and REP) ([7]; TIL6 (ovary), 0.1 μM Cbl-i): 51%
- Percentage of total cell number relative to IL-2 alone on day 42 (Pre-REP and REP) ([7]; TIL6 (ovary), 1.0 μM Cbl-i): 63%
- Percentage of total cell number relative to IL-2 alone on day 42 (Pre-REP and REP) ([7]; TIL6 (ovary), 10 μM Cbl-i): 49%
- Protection from tumor re-challenge (FIG. 21) ([8]; OT-1 cells expanded in vitro): potent memory cells capable of protecting mice from tumor re-challenge
- Number of OT-1 cells in blood 149 days after initial adoptive transfer ([8]; before re-challenge (FIG. 22A)): higher number in the blood
- Recall response, number of OT-1 cells per ml of blood ([8]; day 5 after tumor re-challenge, versus IL-2 alone (FIG. 22B)): significantly more rapid recall response
